Test results published in ChEMBL document CHEMBL1201862, “PubChem BioAssay data set” (2004).
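All cell lines were grown in 96-well plates and treated with compound for 48 hours. GI50 marks 50% less growth.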 Calls of active or inactive are those of the source. Rule as the data show it: active = GI50 up to about 1.1 µM and inactive = higher.

Key:
Assay in all cases: NCI tumour cell line growth inhibition, 48 h
[1] = tested on: 786-0
[2] = tested on: A549
[3] = tested on: ACHN
[4] = tested on: CAKI-1
[5] = tested on: CCRF-CEM
[6] = tested on: COLO 205
[7] = tested on: DU-145
[8] = tested on: EKVX
[9] = tested on: HCC 2998
[10] = tested on: HCT-116
[11] = tested on: HCT-15
[12] = tested on: HL-60
[13] = tested on: HOP-62
[14] = tested on: HOP-92
[15] = tested on: HT-29
[16] = tested on: Hs-578T
[17] = tested on: IGROV-1
[18] = tested on: K562
[19] = tested on: KM12
[20] = tested on: LOX IMVI
[21] = tested on: M14
[22] = tested on: MCF7
[23] = tested on: MDA-MB-231
[24] = tested on: MDA-MB-435
[25] = tested on: MDA-N
[26] = tested on: MOLT-4
[27] = tested on: Malme-3M
[28] = tested on: NCI-H226
[29] = tested on: NCI-H23
[30] = tested on: NCI-H460
[31] = tested on: NCI/ADR-RES
[32] = tested on: OVCAR-3
[33] = tested on: OVCAR-4
[34] = tested on: OVCAR-5
[35] = tested on: OVCAR-8
[36] = tested on: PC-3
[37] = tested on: RPMI-8226
[38] = tested on: RXF 393
[39] = tested on: SF-268
[40] = tested on: SF-295
[41] = tested on: SF-539
[42] = tested on: SK-MEL-28
[43] = tested on: SK-MEL-2
[44] = tested on: SK-MEL-5
[45] = tested on: SK-OV-3
[46] = tested on: SN12C
[47] = tested on: SNB-19
[48] = tested on: SNB-75
[49] = tested on: SR
[50] = tested on: SW-620
[51] = tested on: T47D
[52] = tested on: TK-10
[53] = tested on: U-251
[54] = tested on: UACC-257
[55] = tested on: UACC-62
[56] = tested on: UO-31
[57] = tested on: A498
[58] = tested on: NCI-H522

SMILES: N/N=C1/C(=N/O)CCc2nonc21
- GI50 [1]: > 100 µM (inactive)
- GI50 [2]: > 100 µM (inactive)
- GI50 [3]: > 100 µM (inactive)
- GI50 [4]: > 100 µM (inactive)
- GI50 [5]: > 100 µM (inactive)
- GI50 [6]: > 100 µM (inactive)
- GI50 [7]: > 100 µM (inactive)
- GI50 [8]: 41.6 µM (inactive)
- GI50 [9]: > 100 µM (inactive)
- GI50 [10]: > 100 µM (inactive)
- GI50 [11]: > 100 µM
- GI50 [12]: > 100 µM (inactive)
- GI50 [13]: > 100 µM (inactive)
- GI50 [14]: > 100 µM (inactive)
- GI50 [15]: > 100 µM (inactive)
- GI50 [16]: > 100 µM (inactive)
- GI50 [17]: > 100 µM (inactive)
- GI50 [18]: > 100 µM (inactive)
- GI50 [19]: > 100 µM (inactive)
- GI50 [20]: > 100 µM (inactive)
- GI50 [21]: > 100 µM (inactive)
- GI50 [22]: > 100 µM (inactive)
- GI50 [23]: > 100 µM (inactive)
- GI50 [24]: > 100 µM (inactive)
- GI50 [25]: > 100 µM (inactive)
- GI50 [26]: > 100 µM (inactive)
- GI50 [27]: > 100 µM (inactive)
- GI50 [28]: 24.6 µM (inactive)
- GI50 [29]: > 100 µM (inactive)
- GI50 [30]: > 100 µM (inactive)
- GI50 [31]: > 100 µM (inactive)
- GI50 [32]: > 100 µM (inactive)
- GI50 [33]: > 100 µM (inactive)
- GI50 [34]: > 100 µM (inactive)
- GI50 [35]: > 100 µM (inactive)
- GI50 [36]: > 100 µM (inactive)
- GI50 [37]: > 100 µM (inactive)
- GI50 [38]: > 100 µM (inactive)
- GI50 [39]: > 100 µM (inactive)
- GI50 [40]: > 100 µM (inactive)
- GI50 [41]: > 100 µM (inactive)
- GI50 [42]: > 100 µM (inactive)
- GI50 [43]: > 100 µM (inactive)
- GI50 [44]: > 100 µM (inactive)
- GI50 [45]: > 100 µM (inactive)
- GI50 [46]: > 100 µM (inactive)
- GI50 [47]: 84.1 µM (inactive)
- GI50 [48]: > 100 µM (inactive)
- GI50 [49]: > 100 µM (inactive)
- GI50 [50]: > 100 µM (inactive)
- GI50 [51]: > 100 µM (inactive)
- GI50 [52]: > 100 µM (inactive)
- GI50 [53]: > 100 µM (inactive)
- GI50 [54]: > 100 µM (inactive)
- GI50 [55]: > 100 µM (inactive)
- GI50 [56]: 28.6 µM (inactive)

SMILES: Cc1ccc(SCC(CF)OCn2cc(F)c(=O)[nH]c2=O)cc1 (stereo not drawn)
- GI50 [1]: > 100 µM (inactive)
- GI50 [57]: > 100 µM (inactive)
- GI50 [2]: > 100 µM (inactive)
- GI50 [3]: > 100 µM (inactive)
- GI50 [4]: > 100 µM (inactive)
- GI50 [5]: 55.2 µM (inactive)
- GI50 [7]: > 100 µM (inactive)
- GI50 [8]: > 100 µM (inactive)
- GI50 [9]: > 100 µM (inactive)
- GI50 [10]: > 100 µM (inactive)
- GI50 [11]: > 100 µM
- GI50 [12]: 76.9 µM (inactive)
- GI50 [13]: > 100 µM (inactive)
- GI50 [14]: > 100 µM (inactive)
- GI50 [15]: > 100 µM (inactive)
- GI50 [16]: > 100 µM (inactive)
- GI50 [17]: > 100 µM (inactive)
- GI50 [18]: > 100 µM (inactive)
- GI50 [20]: > 100 µM (inactive)
- GI50 [21]: > 100 µM (inactive)
- GI50 [22]: > 100 µM (inactive)
- GI50 [23]: > 100 µM (inactive)
- GI50 [24]: > 100 µM (inactive)
- GI50 [25]: > 100 µM (inactive)
- GI50 [26]: > 100 µM (inactive)
- GI50 [27]: > 100 µM (inactive)
- GI50 [29]: > 100 µM (inactive)
- GI50 [30]: > 100 µM (inactive)
- GI50 [58]: > 100 µM (inactive)
- GI50 [31]: > 100 µM (inactive)
- GI50 [32]: > 100 µM (inactive)
- GI50 [33]: > 100 µM (inactive)
- GI50 [34]: > 100 µM (inactive)
- GI50 [35]: > 100 µM (inactive)
- GI50 [36]: > 100 µM (inactive)
- GI50 [37]: > 100 µM (inactive)
- GI50 [38]: > 100 µM (inactive)
- GI50 [39]: > 100 µM (inactive)
- GI50 [40]: > 100 µM (inactive)
- GI50 [41]: > 100 µM (inactive)
- GI50 [42]: > 100 µM (inactive)
- GI50 [43]: > 100 µM (inactive)
- GI50 [44]: > 100 µM (inactive)
- GI50 [45]: > 100 µM (inactive)
- GI50 [47]: > 100 µM (inactive)
- GI50 [49]: > 100 µM (inactive)
- GI50 [50]: > 100 µM (inactive)
- GI50 [51]: > 100 µM (inactive)
- GI50 [52]: > 100 µM (inactive)
- GI50 [53]: > 100 µM (inactive)
- GI50 [54]: > 100 µM (inactive)
- GI50 [56]: > 100 µM (inactive)
